Reference: ChEMBL document CHEMBL4507276 (2021)

Tests used:
[1] = target: Acetylcholinesterase (Homo sapiens) (UniProt P22303); experiment: ACHE/H Cerep selectivity data (BI); details: Compound concentration 20.0 uM
Caspase-3 (Homo sapiens) = Caspase-3 (Homo sapiens) (UniProt P42574); experiment: CASPASE-3 Cerep selectivity data (BI); details: Compound concentration 20.0 uM
[2] = target: Cannabinoid receptor 1 (Homo sapiens) (UniProt P21554); experiment: CB1/CENTR/H Cerep selectivity data (BI); details: Compound concentration 20.0 uM
[3] = target: Sodium- and chloride-dependent GABA transporter 1 (Rattus norvegicus) (UniProt P23978); experiment: GABATRANS/R Cerep selectivity data (BI); details: Compound concentration 20.0 uM
[4] = target: Gamma-aminobutyric acid receptor subunit alpha-1 (Rattus norvegicus) (UniProt P62813); experiment: GABAA MUSCIMOL CENT Eurofins-Panlabs selectivity data (BI); details: Compound concentration 10.0 uM
[5] = target: Histamine H3 receptor (Homo sapiens) (UniProt Q9Y5N1); experiment: H3/H Eurofins-Panlabs selectivity data (BI); details: Compound concentration 10.0 uM
[6] = target: CDK9/Cyclin K (Homo sapiens) (UniProt P50750+O75909); experiment: CDK9_CYCLINK Invitrogen selectivity data (BI); assay type: protein-complex assay; details: Compound concentration 3.0 uM
[7] = target: Dual specificity protein kinase CLK1 (Homo sapiens) (UniProt P49759); experiment: CLK1 Invitrogen selectivity data (BI); details: Compound concentration 3.0 uM
[8] = target: Dual specificity protein kinase CLK2 (Homo sapiens) (UniProt P49760); experiment: CLK2 Invitrogen selectivity data (BI); details: Compound concentration 3.0 uM
[9] = target: Macrophage colony-stimulating factor 1 receptor (Homo sapiens) (UniProt P07333); experiment: CSF1R Invitrogen selectivity data (BI); details: Compound concentration 3.0 uM
[10] = target: Tyrosine-protein kinase CSK (Homo sapiens) (UniProt P41240); experiment: CSK Invitrogen selectivity data (BI); details: Compound concentration 3.0 uM
[11] = target: Tyrosine-protein kinase Fes/Fps (Homo sapiens) (UniProt P07332); experiment: FES Invitrogen selectivity data (BI); details: Compound concentration 3.0 uM
[12] = target: Homeodomain-interacting protein kinase 2 (Homo sapiens) (UniProt Q9H2X6); experiment: HIPK2 Invitrogen selectivity data (BI); details: Compound concentration 3.0 uM
[13] = target: T1, Serine/threonine-protein kinase Nek1 (Homo sapiens) (UniProt Q96PY6); experiment: NEK1 Invitrogen selectivity data (BI); details: Compound concentration 3.0 uM
T1 sequence (whole entry): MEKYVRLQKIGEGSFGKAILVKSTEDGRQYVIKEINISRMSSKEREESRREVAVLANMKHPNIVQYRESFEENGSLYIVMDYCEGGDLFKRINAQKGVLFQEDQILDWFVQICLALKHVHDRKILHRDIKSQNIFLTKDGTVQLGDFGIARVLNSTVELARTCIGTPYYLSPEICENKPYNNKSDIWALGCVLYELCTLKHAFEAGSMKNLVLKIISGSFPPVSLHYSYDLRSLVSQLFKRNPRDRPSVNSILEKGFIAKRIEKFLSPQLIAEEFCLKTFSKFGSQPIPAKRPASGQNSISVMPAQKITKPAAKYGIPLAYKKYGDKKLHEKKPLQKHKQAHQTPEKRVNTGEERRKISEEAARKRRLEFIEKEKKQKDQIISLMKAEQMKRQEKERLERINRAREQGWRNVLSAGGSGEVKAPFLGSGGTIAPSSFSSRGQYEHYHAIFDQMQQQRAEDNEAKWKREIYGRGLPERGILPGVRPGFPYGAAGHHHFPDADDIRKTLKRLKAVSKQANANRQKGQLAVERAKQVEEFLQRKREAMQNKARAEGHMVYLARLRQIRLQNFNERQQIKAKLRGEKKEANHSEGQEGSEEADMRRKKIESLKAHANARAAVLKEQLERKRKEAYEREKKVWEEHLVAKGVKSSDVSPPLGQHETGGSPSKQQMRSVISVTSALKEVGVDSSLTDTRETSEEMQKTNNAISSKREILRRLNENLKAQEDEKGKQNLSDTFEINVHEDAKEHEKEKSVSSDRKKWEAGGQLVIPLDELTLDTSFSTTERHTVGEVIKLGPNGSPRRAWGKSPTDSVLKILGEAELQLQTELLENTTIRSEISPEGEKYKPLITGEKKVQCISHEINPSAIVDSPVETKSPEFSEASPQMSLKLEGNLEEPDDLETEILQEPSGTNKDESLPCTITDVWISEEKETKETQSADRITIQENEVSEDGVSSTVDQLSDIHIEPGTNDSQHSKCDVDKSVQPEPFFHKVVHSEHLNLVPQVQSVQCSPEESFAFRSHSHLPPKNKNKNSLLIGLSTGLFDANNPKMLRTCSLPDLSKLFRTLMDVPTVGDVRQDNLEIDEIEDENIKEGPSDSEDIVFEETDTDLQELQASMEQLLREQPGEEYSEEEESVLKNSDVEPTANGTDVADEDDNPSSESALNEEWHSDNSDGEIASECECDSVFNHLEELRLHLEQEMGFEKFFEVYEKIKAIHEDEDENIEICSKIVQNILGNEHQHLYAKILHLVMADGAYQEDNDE

[14] = target: Serine/threonine-protein kinase PAK 6 (Homo sapiens) (UniProt Q9NQU5); experiment: PAK6 Invitrogen selectivity data (BI); details: Compound concentration 3.0 uM
[15] = target: Protein kinase C beta type (Homo sapiens) (UniProt P05771); experiment: PRKCB2 Invitrogen selectivity data (BI); details: Compound concentration 3.0 uM
[16] = target: T2, Serine/threonine-protein kinase 17A (Homo sapiens) (UniProt Q9UEE5); experiment: STK17A Invitrogen selectivity data (BI); details: Compound concentration 3.0 uM
T2 sequence (whole entry): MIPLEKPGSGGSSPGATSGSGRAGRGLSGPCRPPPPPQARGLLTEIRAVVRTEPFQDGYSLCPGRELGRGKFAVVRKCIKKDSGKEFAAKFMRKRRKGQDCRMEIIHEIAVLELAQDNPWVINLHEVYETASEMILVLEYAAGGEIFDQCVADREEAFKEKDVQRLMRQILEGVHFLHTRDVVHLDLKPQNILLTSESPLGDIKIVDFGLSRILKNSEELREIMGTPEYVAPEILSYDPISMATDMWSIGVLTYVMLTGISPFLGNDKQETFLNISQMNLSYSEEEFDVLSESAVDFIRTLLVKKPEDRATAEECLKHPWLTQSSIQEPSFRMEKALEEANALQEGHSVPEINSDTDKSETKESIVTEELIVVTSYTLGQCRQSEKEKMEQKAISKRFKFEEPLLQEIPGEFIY

[17] = target: Mitogen-activated protein kinase kinase kinase 20 (Homo sapiens) (UniProt Q9NYL2); experiment: ZAK Invitrogen selectivity data (BI); details: Compound concentration 3.0 uM
[18] = target: Muscarinic acetylcholine receptor M3 (Homo sapiens) (UniProt P20309); details: Compound concentration 10.0 uM
Muscarinic acetylcholine receptor M3 (Homo sapiens), sequence (P20309 whole entry, looked up): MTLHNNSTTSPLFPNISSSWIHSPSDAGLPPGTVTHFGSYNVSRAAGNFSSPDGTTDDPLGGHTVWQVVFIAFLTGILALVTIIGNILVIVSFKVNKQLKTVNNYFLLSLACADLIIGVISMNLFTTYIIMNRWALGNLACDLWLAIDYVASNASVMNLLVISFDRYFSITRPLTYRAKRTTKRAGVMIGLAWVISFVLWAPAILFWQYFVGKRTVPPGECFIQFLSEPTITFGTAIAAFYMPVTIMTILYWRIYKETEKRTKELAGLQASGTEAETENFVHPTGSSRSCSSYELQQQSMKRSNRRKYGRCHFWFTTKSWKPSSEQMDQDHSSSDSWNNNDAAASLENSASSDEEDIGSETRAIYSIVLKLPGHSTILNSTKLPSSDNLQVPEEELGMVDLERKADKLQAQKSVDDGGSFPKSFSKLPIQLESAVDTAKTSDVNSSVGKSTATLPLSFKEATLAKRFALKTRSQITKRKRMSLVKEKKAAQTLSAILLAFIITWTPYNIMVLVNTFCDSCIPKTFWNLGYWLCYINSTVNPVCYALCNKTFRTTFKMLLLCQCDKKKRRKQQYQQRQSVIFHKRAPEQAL

Tyrosine-protein kinase CSK (Homo sapiens), sequence (P41240 2-450 limits assumed): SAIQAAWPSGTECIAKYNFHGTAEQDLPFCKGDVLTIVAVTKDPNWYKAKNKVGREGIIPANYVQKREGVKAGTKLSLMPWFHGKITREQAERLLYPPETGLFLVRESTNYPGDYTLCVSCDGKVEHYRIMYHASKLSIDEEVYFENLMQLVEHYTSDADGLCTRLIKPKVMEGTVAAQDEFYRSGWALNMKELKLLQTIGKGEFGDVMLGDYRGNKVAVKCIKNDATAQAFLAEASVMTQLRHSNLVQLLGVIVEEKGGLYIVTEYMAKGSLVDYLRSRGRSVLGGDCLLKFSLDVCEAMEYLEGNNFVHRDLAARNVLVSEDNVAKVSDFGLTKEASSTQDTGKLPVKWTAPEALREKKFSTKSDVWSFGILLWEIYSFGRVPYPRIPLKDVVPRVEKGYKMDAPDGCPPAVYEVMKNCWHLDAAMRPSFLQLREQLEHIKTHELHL
Gamma-aminobutyric acid receptor subunit alpha-1 (Rattus norvegicus), sequence (P62813 whole entry): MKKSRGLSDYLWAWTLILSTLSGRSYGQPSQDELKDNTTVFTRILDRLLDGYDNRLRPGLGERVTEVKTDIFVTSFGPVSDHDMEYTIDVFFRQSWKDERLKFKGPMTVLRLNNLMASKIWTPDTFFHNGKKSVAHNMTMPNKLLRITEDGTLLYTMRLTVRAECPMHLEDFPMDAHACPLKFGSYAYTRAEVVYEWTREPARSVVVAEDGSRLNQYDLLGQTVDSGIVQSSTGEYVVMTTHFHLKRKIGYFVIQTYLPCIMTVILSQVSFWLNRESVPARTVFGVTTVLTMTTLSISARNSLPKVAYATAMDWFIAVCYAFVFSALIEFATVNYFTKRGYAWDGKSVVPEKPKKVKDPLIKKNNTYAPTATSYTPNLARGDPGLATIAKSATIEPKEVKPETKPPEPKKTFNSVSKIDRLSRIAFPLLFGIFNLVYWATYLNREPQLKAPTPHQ
Serine/threonine-protein kinase PAK 6 (Homo sapiens), sequence (Q9NQU5 whole entry, looked up): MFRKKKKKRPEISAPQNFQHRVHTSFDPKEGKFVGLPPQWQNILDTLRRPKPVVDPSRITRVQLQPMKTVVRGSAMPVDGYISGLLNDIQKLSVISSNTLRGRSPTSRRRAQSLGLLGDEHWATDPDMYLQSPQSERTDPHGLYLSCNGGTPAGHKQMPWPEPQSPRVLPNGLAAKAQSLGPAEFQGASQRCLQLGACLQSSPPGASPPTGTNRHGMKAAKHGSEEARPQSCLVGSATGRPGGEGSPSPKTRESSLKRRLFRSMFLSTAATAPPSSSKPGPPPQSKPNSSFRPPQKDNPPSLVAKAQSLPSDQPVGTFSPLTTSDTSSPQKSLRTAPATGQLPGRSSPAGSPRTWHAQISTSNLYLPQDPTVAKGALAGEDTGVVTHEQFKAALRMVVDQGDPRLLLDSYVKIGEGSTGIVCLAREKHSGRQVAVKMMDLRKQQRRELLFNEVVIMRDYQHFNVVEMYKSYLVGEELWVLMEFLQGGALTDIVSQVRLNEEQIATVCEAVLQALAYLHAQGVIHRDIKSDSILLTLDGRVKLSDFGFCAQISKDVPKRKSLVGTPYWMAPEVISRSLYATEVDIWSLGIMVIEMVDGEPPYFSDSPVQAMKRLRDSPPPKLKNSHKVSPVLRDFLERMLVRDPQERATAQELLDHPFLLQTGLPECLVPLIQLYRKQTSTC
Macrophage colony-stimulating factor 1 receptor (Homo sapiens), sequence (P07333 whole entry): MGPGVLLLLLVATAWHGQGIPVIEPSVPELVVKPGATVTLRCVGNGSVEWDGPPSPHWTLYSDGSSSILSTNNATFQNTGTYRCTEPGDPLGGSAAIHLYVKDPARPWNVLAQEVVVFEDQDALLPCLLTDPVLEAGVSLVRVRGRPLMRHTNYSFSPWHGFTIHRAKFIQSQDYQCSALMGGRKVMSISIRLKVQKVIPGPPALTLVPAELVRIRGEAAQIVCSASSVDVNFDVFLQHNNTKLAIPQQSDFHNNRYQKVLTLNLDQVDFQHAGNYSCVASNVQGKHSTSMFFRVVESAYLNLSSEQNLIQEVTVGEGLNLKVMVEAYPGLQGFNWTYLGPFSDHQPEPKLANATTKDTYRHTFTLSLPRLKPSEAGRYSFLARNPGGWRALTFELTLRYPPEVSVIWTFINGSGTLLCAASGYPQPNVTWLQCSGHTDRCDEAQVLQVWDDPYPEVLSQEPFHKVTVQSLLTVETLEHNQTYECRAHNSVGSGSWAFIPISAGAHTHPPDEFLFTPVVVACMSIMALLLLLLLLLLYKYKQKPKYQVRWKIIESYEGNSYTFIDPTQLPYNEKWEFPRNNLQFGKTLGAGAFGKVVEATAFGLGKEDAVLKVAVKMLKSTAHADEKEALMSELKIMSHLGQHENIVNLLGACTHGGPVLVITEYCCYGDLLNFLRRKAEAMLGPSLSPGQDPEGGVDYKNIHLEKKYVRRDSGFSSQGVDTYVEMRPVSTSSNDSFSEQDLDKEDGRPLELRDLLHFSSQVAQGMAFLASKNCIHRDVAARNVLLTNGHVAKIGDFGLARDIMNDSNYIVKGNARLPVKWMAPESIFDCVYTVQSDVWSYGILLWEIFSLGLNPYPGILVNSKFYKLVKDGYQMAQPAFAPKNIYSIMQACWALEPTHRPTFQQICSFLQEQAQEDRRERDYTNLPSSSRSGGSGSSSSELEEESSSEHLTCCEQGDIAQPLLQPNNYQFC
Homeodomain-interacting protein kinase 2 (Homo sapiens), sequence (Q9H2X6 whole entry, looked up): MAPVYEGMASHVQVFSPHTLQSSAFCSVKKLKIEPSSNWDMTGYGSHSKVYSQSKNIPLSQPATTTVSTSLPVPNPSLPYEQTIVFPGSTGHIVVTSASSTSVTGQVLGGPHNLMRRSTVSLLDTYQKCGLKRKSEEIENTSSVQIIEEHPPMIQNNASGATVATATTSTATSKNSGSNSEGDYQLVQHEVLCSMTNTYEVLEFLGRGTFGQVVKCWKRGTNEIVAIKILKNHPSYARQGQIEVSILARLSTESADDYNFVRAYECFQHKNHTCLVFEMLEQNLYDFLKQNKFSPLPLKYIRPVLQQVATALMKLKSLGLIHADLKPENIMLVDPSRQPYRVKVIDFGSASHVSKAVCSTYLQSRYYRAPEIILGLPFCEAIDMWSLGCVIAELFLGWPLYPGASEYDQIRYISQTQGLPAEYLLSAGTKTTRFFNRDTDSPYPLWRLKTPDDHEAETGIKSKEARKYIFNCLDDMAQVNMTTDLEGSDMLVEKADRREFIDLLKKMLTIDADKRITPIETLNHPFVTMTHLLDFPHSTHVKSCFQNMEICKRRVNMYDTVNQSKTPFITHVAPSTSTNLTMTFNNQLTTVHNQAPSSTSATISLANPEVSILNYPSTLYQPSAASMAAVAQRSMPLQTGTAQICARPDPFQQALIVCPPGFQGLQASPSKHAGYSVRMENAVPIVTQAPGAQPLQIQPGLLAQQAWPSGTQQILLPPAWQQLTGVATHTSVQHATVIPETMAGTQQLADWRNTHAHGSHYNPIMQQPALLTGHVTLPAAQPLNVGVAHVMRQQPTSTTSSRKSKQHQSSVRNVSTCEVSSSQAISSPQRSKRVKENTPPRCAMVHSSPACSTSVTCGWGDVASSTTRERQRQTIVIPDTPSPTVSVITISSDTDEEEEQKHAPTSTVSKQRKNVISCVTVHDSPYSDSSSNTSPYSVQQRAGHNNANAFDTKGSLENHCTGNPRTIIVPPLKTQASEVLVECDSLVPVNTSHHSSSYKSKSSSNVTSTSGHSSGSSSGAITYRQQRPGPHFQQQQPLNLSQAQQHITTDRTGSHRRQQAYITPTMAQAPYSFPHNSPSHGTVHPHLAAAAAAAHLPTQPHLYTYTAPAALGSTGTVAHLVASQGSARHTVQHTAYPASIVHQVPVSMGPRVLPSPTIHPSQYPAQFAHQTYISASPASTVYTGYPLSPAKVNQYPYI

CN(C)C(=O)Cn1cc(-c2nc([C@@](C)(c3ccc(-c4cnc(N)nc4)cc3)C3CC3)no2)cn1 [BI 665915]
inactive: residual activity [1] 98% | residual activity (Caspase-3 (Homo sapiens)) 98% | residual activity [2] 88% | residual activity [3] 96% | residual activity [4] 100% | residual activity [5] 123% | residual activity [6] 96% | residual activity [7] 96.5% | residual activity [8] 95.5% | residual activity [9] 73% | residual activity [10] 95% | residual activity [11] 94.5% | residual activity [12] 96% | residual activity [13] 104% | residual activity [14] 93.5% | residual activity [15] 100% | residual activity [16] 96% | residual activity [17] 97% | inhibition [18] 7.43%
